Source: patent publication US8846730B2, “Compounds as cannabinoid receptor ligands” (priority 2008, dated 2014)
Read-outs that look alike come from different tables or passages of the source.

What was measured:
human CB2 receptors = human CB2 receptors (Homo sapiens (Human), UniProt P34972); assay: human CB2 radioligand binding assay ([3H]CP 55,940 competition); conditions: HEK293 membranes, 0.5 nM [3H]CP 55,940; read-out: human CB2 (Ki)
Experimental: (§1) The CB1 and CB2 radioligand binding assays described herein are utilized to ascertain the affinity of compounds of the present application for binding to CB2 relative to CB1 receptors.
HEK293 cells stably expressing human CB2 receptors were grown until a confluent monolayer was formed. Briefly, the cells were harvested and homogenized in TE buffer (50 mM Tris-HCl, 1 mM MgCl2, and 1 mM EDTA) using a polytron for 2×10 second bursts in the presence of protease inhibitors, followed by centrifugation at 45,000×g for 20 minutes. The final membrane pellet was re-homogenized in storage buffer (50 mM Tris-HCl, 1 mM MgCl2, and 1 mM EDTA and 10% sucrose) and frozen at −78° C. until used. Saturation binding reactions were initiated by the addition of membrane preparation (protein concentration of 5 μg/well for human CB2) into wells of a deep well plate containing [^3H]CP 55,940 (120 Ci/mmol, a nonselective CB agonist commercially available from Tocris) in assay buffer (50 mM Tris, 2.5 mM EDTA, 5 mM MgCl2, and 0.5 mg/mL fatty acid free BSA, pH 7.4). After 90 min incubation at 30° C., binding reaction was terminated by the addition of 300 μL/well of cold assay buffer followed by rapid vacuum filtration through a UniFilter-96 GF/C filter plates (pre-soaked in 1 mg/mL BSA for 2 hours). The bound activity was counted in a TopCount using Microscint-20. Saturation experiments were conducted with twelve concentrations of [^3H]CP 55,940 ranging from 0.01 to 8 nM. Competition experiments were conducted with 0.5 nM [^3H]CP 55,940 and five concentrations (0.01 nM to 10 μM) of displacing ligands. The addition of 10 μM unlabeled CP 55,940 (Tocris, Ellisville, Mo.) was used to assess nonspecific binding.

rat CB2 receptors = rat CB2 receptors (Rattus norvegicus (Rat), UniProt Q9QZN9); assay: rat CB2 radioligand binding assay ([3H]CP 55,940 competition); conditions: HEK293 membranes, 0.5 nM [3H]CP 55,940
Experimental: as §1
HEK293 cells stably expressing rat CB2 receptors were grown until a confluent monolayer was formed. Briefly, the cells were harvested and homogenized in TE buffer (50 mM Tris-HCl, 1 mM MgCl2, and 1 mM EDTA) using a polytron for 2×10 second bursts in the presence of protease inhibitors, followed by centrifugation at 45,000×g for 20 minutes. The final membrane pellet was re-homogenized in storage buffer (50 mM Tris-HCl, 1 mM MgCl2, and 1 mM EDTA and 10% sucrose) and frozen at −78° C. until used. Saturation binding reactions were initiated by the addition of membrane preparation (protein concentration of 20 μg/well for rat CB2) into wells of a deep well plate containing [^3H]CP 55,940 (120 Ci/mmol, a nonselective CB agonist commercially available from Tocris) in assay buffer (50 mM Tris, 2.5 mM EDTA, 5 mM MgCl2, and 0.5 mg/mL fatty acid free BSA, pH 7.4). After 45 min incubation at 30° C., binding reaction was terminated by the addition of 300 μl/well of cold assay buffer followed by rapid vacuum filtration through a UniFilter-96 GF/C filter plates (pre-soaked in 1 mg/mL BSA for 2 hours). The bound activity was counted in a TopCount using Microscint-20. Saturation experiments were conducted with twelve concentrations of [^3H]CP 55,940 ranging from 0.01 to 8 nM. Competition experiments were conducted with 0.5 nM [^3H]CP 55,940 and five concentrations of displacing ligands selected from the range of 0.01 nM to 10 μM. The addition of 10 μM unlabeled CP 55,940 (Tocris, Ellisville, Mo.) was used to assess nonspecific binding.

[1] = biological target: rat CB1 receptors (HEK cells) (Rattus norvegicus (Rat), UniProt P20272); assay: rat CB1 cyclase functional assay (HitHunter cAMP); format: cell-based
Chain of rat CB1 receptors (HEK cells) (P20272 whole entry): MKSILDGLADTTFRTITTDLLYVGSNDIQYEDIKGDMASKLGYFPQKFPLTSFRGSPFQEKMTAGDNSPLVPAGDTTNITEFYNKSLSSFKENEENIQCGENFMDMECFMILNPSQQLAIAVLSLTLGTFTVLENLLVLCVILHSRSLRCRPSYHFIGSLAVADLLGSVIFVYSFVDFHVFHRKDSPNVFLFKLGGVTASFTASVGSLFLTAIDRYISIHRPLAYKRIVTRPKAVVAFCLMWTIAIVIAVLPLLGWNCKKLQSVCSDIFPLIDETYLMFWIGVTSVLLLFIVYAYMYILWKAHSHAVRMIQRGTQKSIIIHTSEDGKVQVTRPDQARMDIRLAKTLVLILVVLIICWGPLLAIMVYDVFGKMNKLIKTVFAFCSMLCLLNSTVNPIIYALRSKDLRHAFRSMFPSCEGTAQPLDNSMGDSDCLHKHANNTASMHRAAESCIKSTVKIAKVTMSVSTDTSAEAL
Experimental: (§2) The cyclase functional assays were performed using the HitHunter™ cAMP assay kit from DiscoveRx (Fremont, Calif.) according to vendor's protocol. Briefly, HEK cells expressing CB2 or CB1 receptors (rat or human) were detached using cell dissociation buffer (Invitrogen, Carlsbad, Calif.), dispersed and placed in suspension at 10,000 cells per well in 96 well plates prior to the assay. Cell suspensions were incubated at 37° C. for 20 min with variable concentrations of test ligands and or 10 μM CP 55,940-positive control in the presence of a fixed concentration of forskolin (18 μM for rat CB2 and 37 μM for rat CB1) in Dulbescco's phosphate-buffered saline (Invitrogen, Carlsbad, Calif.) supplemented with bovine serum albumin (0.01% final concentration). The reactions were terminated by the addition of lysis buffer and the luminescence was detected following the procedure according to the manufacturer's instructions. EC50 values were calculated using sigmoidal dose-response curve fitting from Prism (GraphPad).

[2] = biological target: rat CB2 receptors (HEK cells) (Rattus norvegicus (Rat), UniProt Q9QZN9); assay: rat CB2 cyclase functional assay (HitHunter cAMP); format: cell-based; conditions: HEK cells, forskolin 18 μM; read-out: rat CB2 cyclase (EC50)
Experimental: as §2

[3] = HEK cells, forskolin 37 μM, read-out: rCB1 cyclase (EC50)

Chain of human CB2 receptors (P34972 whole entry): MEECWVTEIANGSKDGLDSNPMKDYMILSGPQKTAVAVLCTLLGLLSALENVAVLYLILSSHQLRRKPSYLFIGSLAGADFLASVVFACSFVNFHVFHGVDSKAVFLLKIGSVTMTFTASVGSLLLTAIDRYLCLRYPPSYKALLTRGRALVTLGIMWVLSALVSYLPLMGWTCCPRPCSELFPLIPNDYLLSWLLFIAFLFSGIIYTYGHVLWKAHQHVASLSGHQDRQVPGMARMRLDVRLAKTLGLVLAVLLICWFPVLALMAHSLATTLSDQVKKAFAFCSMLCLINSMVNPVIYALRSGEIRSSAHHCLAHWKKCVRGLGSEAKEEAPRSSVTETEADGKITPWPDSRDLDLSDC

| Structure (SMILES) | Ki (human CB2 receptors) [nM] | Ki (rat CB2 receptors) [nM] | EC50 [1] [nM] | EC50 [2] [nM] | EC50 [1, 3] [nM] |
| --- | --- | --- | --- | --- | --- |
| CC(C)(C)c1cn(C[C@H]2CCCO2)/c(=N/C(=O)c2cc(C(F)(F)F)ccc2OC[C@H]2CCN2)s1 [Example 1, 2-[(2R)-azetidin-2-ylmethoxy]-N-[(2Z)-5-tert-butyl-3-[(2R)-tetrahydrofuran-2-ylmethyl]-1,3-thiazol-2(3H)-ylidene]-5-(trifluoromethyl)benzamide] | 115 | 15 | 9330 | 2.26 | – |
| CC(C)(C)c1cn(C[C@H]2CCCO2)/c(=N/C(=O)c2cc(C(F)(F)F)ccc2OC[C@@H]2CCN2)s1 [Example 2, 2-[(2S)-azetidin-2-ylmethoxy]-N-[(2Z)-5-tert-butyl-3-[(2R)-tetrahydrofuran-2-ylmethyl]-1,3-thiazol-2(3H)-ylidene]-5-(trifluoromethyl)benzamide] | 15 | 3 | 3240 | 0.64 | – |
| CN1CC[C@H]1COc1ccc(C(F)(F)F)cc1C(=O)/N=c1\sc(C(C)(C)C)cn1C[C@H]1CCCO1 [Example 3, N-[(2Z)-5-tert-butyl-3-[(2R)-tetrahydrofuran-2-ylmethyl]-1,3-thiazol-2(3H)-ylidene]-2-{[(2S)-1-methylazetidin-2-yl]methoxy}-5-(trifluoromethyl)benzamide] | 7.4 | 4.5 | 1020 | 0.09 | – |
| CC(C)(C)c1cn(C[C@H]2CCCO2)/c(=N/C(=O)c2cc(C(F)(F)F)ccc2OC[C@@H]2CCCCN2)s1 [Example 4] | 0.7 | 0.6 | – | 0.4 | 395 |
| CN1CCCC[C@H]1COc1ccc(C(F)(F)F)cc1C(=O)/N=c1\sc(C(C)(C)C)cn1C[C@H]1CCCO1 [Example 5] | 0.7 | 1.4 | – | 0.15 | 612 |
| CC(C)(C)c1cn(C[C@H]2CCCO2)/c(=N/C(=O)c2cc(C(F)(F)F)ccc2OC[C@H]2CCCCN2)s1 [Example 6, N-[(2Z)-5-tert-butyl-3-[(2R)-tetrahydrofuran-2-ylmethyl]-1,3-thiazol-2(3H)-ylidene]-2-[(2R)-piperidin-2-ylmethoxy]-5-(trifluoromethyl)benzamide] | 30 | 14 | 4500 | 0.4 | – |
| CN1CCCC[C@@H]1COc1ccc(C(F)(F)F)cc1C(=O)/N=c1\sc(C(C)(C)C)cn1C[C@H]1CCCO1 [Example 7, N-[(2Z)-5-tert-butyl-3-[(2R)-tetrahydrofuran-2-ylmethyl]-1,3-thiazol-2(3H)-ylidene]-2-{[(2R)-1-methylpiperidin-2-yl]methoxy}-5-(trifluoromethyl)benzamide] | 33 | 19 | 4700 | 0.38 | – |
| CN1CC[C@@H]1COc1ccc(C(F)(F)F)cc1C(=O)/N=c1\sc(C(C)(C)C)cn1C[C@H]1CCCO1 [Example 8, N-[(2Z)-5-tert-butyl-3-[(2R)-tetrahydrofuran-2-ylmethyl]-1,3-thiazol-2(3H)-ylidene]-2-{[(2R)-1-methylazetidin-2-yl]methoxy}-5-(trifluoromethyl)benzamide] | 47 | 17 | 3680 | 0.35 | – |
| CN1CC(COc2ccc(C(F)(F)F)cc2C(=O)/N=c2\sc(C(C)(C)C)cn2C[C@H]2CCCO2)C1 [Example 12, N-[(2Z)-5-tert-butyl-3-[(2R)-tetrahydrofuran-2-ylmethyl]-1,3-thiazol-2(3H)-ylidene]-2-[(1-methylazetidin-3-yl)methoxy]-5-(trifluoromethyl)benzamide] | 208 | 28 | 10800 | 2.07 | – |
| CN1CCC(COc2ccc(C(F)(F)F)cc2C(=O)/N=c2\sc(C(C)(C)C)cn2C[C@H]2CCCO2)CC1 [Example 15, N-[(2Z)-5-tert-butyl-3-[(2R)-tetrahydrofuran-2-ylmethyl]-1,3-thiazol-2(3H)-ylidene]-2-[(1-methylpiperidin-4-yl)methoxy]-5-(trifluoromethyl)benzamide] | 1000 | 83 | 13000 | 6.26 | – |
| Cn1ccnc1COc1ccc(C(F)(F)F)cc1C(=O)/N=c1\sc(C(C)(C)C)cn1C[C@H]1CCCO1 [Example 17, N-[(2Z)-5-tert-butyl-3-[(2R)-tetrahydrofuran-2-ylmethyl]-1,3-thiazol-2(3H)-ylidene]-2-[(1-methyl-1H-imidazol-2-yl)methoxy]-5-(trifluoromethyl)benzamide] | 53 | 15 | > 27000 | 2.75 | – |
| CC(C)(C)c1cn(C[C@H]2CCCO2)/c(=N/C(=O)c2cc(C(F)(F)F)ccc2OCc2ccccn2)s1 [Example 18, N-[(2Z)-5-tert-butyl-3-[(2R)-tetrahydrofuran-2-ylmethyl]-1,3-thiazol-2(3H)-ylidene]-2-(pyridin-2-ylmethoxy)-5-(trifluoromethyl)benzamide] | 20 | 6 | > 27000 | 1.02 | – |
| CC(C)(C)/C(COc1ccc(C(F)(F)F)cc1C(=O)/N=c1\sc(C(C)(C)C)cn1C[C@H]1CCCO1)=N\O [Example 71, N-[(2Z)-5-tert-butyl-3-[(2R)-tetrahydrofuran-2-ylmethyl]-1,3-thiazol-2(3H)-ylidene]-2-{[(2E)-2-(hydroxyimino)-3,3-dimethylbutyl]oxy}-5-(trifluoromethyl)benzamide] | 5.4 | 4.1 | > 27000 | – | – |
| CC(C)(C)C(=O)COc1ccc(C(F)(F)F)cc1C(=O)/N=c1\sc(C(C)(C)C)cn1C[C@H]1CCCO1 [Example 72, N-[(2Z)-5-tert-butyl-3-[(2R)-tetrahydrofuran-2-ylmethyl]-1,3-thiazol-2(3H)-ylidene]-2-(3,3-dimethyl-2-oxobutoxy)-5-(trifluoromethyl)benzamide] | 0.9 | 0.3 | > 27000 | – | – |
| CC(COc1ccc(C(F)(F)F)cc1C(=O)/N=c1\sc(C(C)(C)C)cn1C[C@H]1CCCO1)=NO [Example 73, N-[(2Z)-5-tert-butyl-3-[(2R)-tetrahydrofuran-2-ylmethyl]-1,3-thiazol-2(3H)-ylidene]-2-{[2-(hydroxyimino)propyl]oxy}-5-(trifluoromethyl)benzamide] | 1.8 | 0.5 | – | – | 2320 |
| CC(=NOc1ccc(C(F)(F)F)cc1C(=O)/N=c1\sc(C(C)(C)C)cn1C[C@H]1CCCO1)C(F)(F)F [Example 80, N-[(2Z)-5-tert-butyl-3-[(2R)-tetrahydrofuran-2-ylmethyl]-1,3-thiazol-2(3H)-ylidene]-5-(trifluoromethyl)-2-({[2,2,2-trifluoro-1-methylethylidene]amino}oxy)benzamide] | 4.4 | 4.8 | > 27000 | – | – |
